Measured values published in PubChem BioAssay AID248 (DTP/NCI, 2004).
Where “and” joins values, the source holds several entries; their conditions need not be identical. Identical values can stand only once. Toxic doses and inconclusive results are not listed. No stated cut-off is given here; in the data, active means T/C of 150% or more; inactive means T/C below 125%.

Tested on: L1210 leukemia ip in BDF1 mice, survival T/C
Experiment: NCI In Vivo Anticancer Drug Screen. Data for tumor model L1210 Leukemia (intraperitoneal) in B6D2F1 (BDF1) mice
Details: endpoint: mean survival time, higher = longer survival
In short: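 Transplanted-tumor mice were given test agent; controls received vehicle only. Survival readings from the two groups were divided (treated over control).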

[1] = dose: 25.0 mg/kg/injection, schedule: Q04DX003 (ip), vehicle: Klucel (hydroxypropylcellulose) (HPC)
[2] = dose: 50.0 mg/kg/injection, schedule: Q04DX003 (ip), vehicle: Klucel (hydroxypropylcellulose) (HPC)
[3] = dose: 100.0 mg/kg/injection, schedule: Q04DX003 (ip), vehicle: Klucel (hydroxypropylcellulose) (HPC)
[4] = dose: 100.0 mg/kg/injection, schedule: Q01DX001 (ip), vehicle: carboxymethylcellulose (CMC)
[5] = dose: 200.0 mg/kg/injection, schedule: Q01DX001 (ip), vehicle: carboxymethylcellulose (CMC)
[6] = dose: 400.0 mg/kg/injection, schedule: Q01DX001 (ip), vehicle: carboxymethylcellulose (CMC)
[7] = dose: 100.0 mg/kg/injection, schedule: Q04DX003 (ip), vehicle: saline with Tween-80
[8] = dose: 200.0 mg/kg/injection, schedule: Q04DX003 (ip), vehicle: saline with Tween-80
[9] = dose: 400.0 mg/kg/injection, schedule: Q04DX003 (ip), vehicle: saline with Tween-80
[10] = dose: 100.0 mg/kg/injection, schedule: Q01DX001 (ip), vehicle: other
[11] = dose: 200.0 mg/kg/injection, schedule: Q01DX001 (ip), vehicle: other

Measured: T/C

O=C(CCCC(=O)NNC(=O)Nc1cc(Cl)ccc1Cl)NNC(=O)Nc1cc(Cl)ccc1Cl
inactive: dose: 50.0 mg/kg/injection, schedule: Q01DX001 (ip), vehicle: saline 108 % of control | dose: 100.0 mg/kg/injection, schedule: Q01DX001 (ip), vehicle: saline 102 % of control | dose: 200.0 mg/kg/injection, schedule: Q01DX001 (ip), vehicle: saline 102 % of control | dose: 400.0 mg/kg/injection, schedule: Q01DX001 (ip), vehicle: saline 102 % of control

NC(=O)N/N=C1/CCN2CCCc3cccc1c32
inactive: dose: 12.5 mg/kg/injection, schedule: Q01DX009 (ip), vehicle: Klucel (hydroxypropylcellulose) (HPC) 95 % of control | dose: 25.0 mg/kg/injection, schedule: Q01DX009 (ip), vehicle: Klucel (hydroxypropylcellulose) (HPC) 103 % of control | [1] 103 % of control | dose: 50.0 mg/kg/injection, schedule: Q01DX009 (ip), vehicle: Klucel (hydroxypropylcellulose) (HPC) 93 % of control | [2] 97 % of control | [3] 95 % of control

CCN(CC)CCCC(C)Nc1ncnc(N)c1N (stereo not drawn)
inactive: dose: 12.5 mg/kg/injection, schedule: Q04DX003 (ip), vehicle: Klucel (hydroxypropylcellulose) (HPC) 93 % of control | [1] 91 % of control | [2] 102 % of control

CCN(CC)C(=O)N1CCN(c2ccc(Cl)cc2)CC1
inactive: dose: 75.0 mg/kg/injection, schedule: Q01DX001 (ip), vehicle: saline 106 % of control | dose: 75.0 mg/kg/injection, schedule: Q04DX003 (ip), vehicle: saline 103 % of control | dose: 150.0 mg/kg/injection, schedule: Q01DX001 (ip), vehicle: saline 94 % of control | dose: 150.0 mg/kg/injection, schedule: Q04DX003 (ip), vehicle: saline 100 % of control | dose: 300.0 mg/kg/injection, schedule: Q01DX001 (ip), vehicle: saline 108 % of control | dose: 300.0 mg/kg/injection, schedule: Q04DX003 (ip), vehicle: saline 91 % of control

CC12CCC(=O)C3C1CCCC32
inactive: [4] 100 % of control | [5] 111 % of control | [6] 103 % of control

CC(O)c1ccc2ccccc2c1 (stereo not drawn)
inactive: [7] 98 % of control | [8] 101 % of control | [9] 96 % of control

Cc1nc2cnc(N)nc2nc1C
inactive: dose: 16.0 mg/kg/injection, schedule: Q01DX Z (ip), vehicle: methylcellulose (MC) 97 % of control | dose: 31.0 mg/kg/injection, schedule: Q01DX Z (ip), vehicle: methylcellulose (MC) 97 % of control | dose: 62.0 mg/kg/injection, schedule: Q01DX Z (ip), vehicle: methylcellulose (MC) 109 % of control | [10] 96 % of control | dose: 125.0 mg/kg/injection, schedule: Q01DX Z (ip), vehicle: methylcellulose (MC) 89 % of control and 90 % of control | [11] 101 % of control | dose: 250.0 mg/kg/injection, schedule: Q01DX Z (ip), vehicle: methylcellulose (MC) 91 % of control | dose: 400.0 mg/kg/injection, schedule: Q01DX001 (ip), vehicle: other 98 % of control | dose: 500.0 mg/kg/injection, schedule: Q01DX Z (ip), vehicle: methylcellulose (MC) 93 % of control

COc1ccc(Cl)cc1NC(=O)Oc1cc(C)c(Cl)c(C)c1
inactive: dose: 100.0 mg/kg/injection, schedule: Q01DX009 (ip), vehicle: Klucel (hydroxypropylcellulose) (HPC) 104 % of control | dose: 200.0 mg/kg/injection, schedule: Q01DX009 (ip), vehicle: Klucel (hydroxypropylcellulose) (HPC) 95 % of control | dose: 400.0 mg/kg/injection, schedule: Q01DX009 (ip), vehicle: Klucel (hydroxypropylcellulose) (HPC) 112 % of control

Cc1ccc2c(c1)OC(=O)CC2C (stereo not drawn)
inactive: [4] 100 % of control | [5] 96 % of control | [6] 96 % of control

CCOC(=O)C(C(=O)OCC)C1c2ccccc2-c2ccccc21
inactive: [3] 102 % of control | dose: 200.0 mg/kg/injection, schedule: Q04DX003 (ip), vehicle: Klucel (hydroxypropylcellulose) (HPC) 96 % of control | dose: 400.0 mg/kg/injection, schedule: Q04DX003 (ip), vehicle: Klucel (hydroxypropylcellulose) (HPC) 100 % of control

CC(C)CSC(SCC(C)C)C(O)C(O)C(O)CO (stereo not drawn)
inactive: dose: 75.0 mg/kg/injection, schedule: Q01DX001 (ip), vehicle: carboxymethylcellulose (CMC) 98 % of control | dose: 150.0 mg/kg/injection, schedule: Q01DX001 (ip), vehicle: carboxymethylcellulose (CMC) 109 % of control | dose: 300.0 mg/kg/injection, schedule: Q01DX001 (ip), vehicle: carboxymethylcellulose (CMC) 97 % of control

NC(N)=N/N=C/CN1C(=O)c2ccccc2C1=O
inactive: dose: 60.0 mg/kg/injection, schedule: Q01DX Z (oral), vehicle: methylcellulose (MC) 104 % of control | dose: 120.0 mg/kg/injection, schedule: Q01DX Z (oral), vehicle: methylcellulose (MC) 94 % of control | dose: 240.0 mg/kg/injection, schedule: Q01DX Z (oral), vehicle: methylcellulose (MC) 109 % of control | dose: 480.0 mg/kg/injection, schedule: Q01DX Z (oral), vehicle: methylcellulose (MC) 98 % of control

COc1ccc(COC(=O)Oc2ccc(C#N)cc2)cc1OC
inactive: [7] 106 % of control | [8] 96 % of control | [9] 93 % of control

O=C(O)c1ccc(=O)[nH]n1
inactive: dose: 100.0 mg/kg/injection, schedule: Q04DX002 (ip), vehicle: Klucel (hydroxypropylcellulose) (HPC) 115 % of control | dose: 200.0 mg/kg/injection, schedule: Q04DX002 (ip), vehicle: Klucel (hydroxypropylcellulose) (HPC) 93 % of control | dose: 400.0 mg/kg/injection, schedule: Q04DX002 (ip), vehicle: Klucel (hydroxypropylcellulose) (HPC) 89 % of control

O=[N+]([O-])c1ccccc1C=Nc1ccccc1
inactive: dose: 100.0 mg/kg/injection, schedule: Q01DX009 (ip), vehicle: acetone 96 % of control | dose: 100.0 mg/kg/injection, schedule: Q04DX003 (ip), vehicle: acetone 106 % of control | dose: 200.0 mg/kg/injection, schedule: Q01DX009 (ip), vehicle: acetone 98 % of control | dose: 200.0 mg/kg/injection, schedule: Q04DX003 (ip), vehicle: acetone 97 % of control | dose: 400.0 mg/kg/injection, schedule: Q01DX009 (ip), vehicle: acetone 102 % of control | dose: 400.0 mg/kg/injection, schedule: Q04DX003 (ip), vehicle: acetone 101 % of control

CN(C(=O)OCc1ccccc1)C(Cc1ccccc1)C(=O)O (stereo not drawn)
inactive: [10] 95 % of control | [11] 96 % of control

CN(C)CCOC(=O)c1cccc(CCBr)c1
inactive: dose: 87.5 mg/kg/injection, schedule: Q01DX009 (ip), vehicle: saline 103 % of control | dose: 175.0 mg/kg/injection, schedule: Q01DX009 (ip), vehicle: saline 92 % of control | dose: 350.0 mg/kg/injection, schedule: Q01DX009 (ip), vehicle: saline 104 % of control

CC[N+](C)(CC)CCCOC(=O)c1ccccc1Oc1ccc(C)cc1
inactive: dose: 100.0 mg/kg/injection, schedule: Q04DX003 (ip), vehicle: saline 104 % of control | dose: 200.0 mg/kg/injection, schedule: Q04DX003 (ip), vehicle: saline 93 % of control

Clc1ncnc2[nH]cc(Br)c12
inactive: dose: 50.0 mg/kg/injection, schedule: Q01DX001 (ip), vehicle: carboxymethylcellulose (CMC) 98 % of control | [4] 104 % of control | [5] 110 % of control | [6] 98 % of control

CSC(=S)NNC(=O)c1ccc([N+](=O)[O-])cc1
inactive: dose: 6.25 mg/kg/injection, schedule: Q04DX003 (ip), vehicle: saline sonified 96 % of control | dose: 12.5 mg/kg/injection, schedule: Q04DX003 (ip), vehicle: saline sonified 98 % of control

COc1ccccc1N=Nc1c(O)n(-c2ccccc2OC)c(=S)n(-c2ccccc2)c1=O
inactive: dose: 100.0 mg/kg/injection, schedule: Q01DX001 (ip), vehicle: Klucel (hydroxypropylcellulose) (HPC) 96 % of control | dose: 200.0 mg/kg/injection, schedule: Q01DX001 (ip), vehicle: Klucel (hydroxypropylcellulose) (HPC) 94 % of control

CCCCNC(C)C1(O)Cc2c(O)c3c(c(O)c2C(OC2CC(N)C(O)C(C)O2)C1)C(=O)c1c(OC)cccc1C3=O (stereo not drawn)
inactive: dose: 5.0 mg/kg/injection, schedule: Q01DX009 (ip), vehicle: water 100 % of control | dose: 10.0 mg/kg/injection, schedule: Q01DX009 (ip), vehicle: water 100 % of control | dose: 20.0 mg/kg/injection, schedule: Q01DX009 (ip), vehicle: water 92 % of control | dose: 80.0 mg/kg/injection, schedule: Q01DX009 (ip), vehicle: water 104 % of control

C[N+](C)(N)Cc1ccc(C[N+](C)(C)N)cc1
inactive: dose: 100.0 mg/kg/injection, schedule: Q04DX002 (ip), vehicle: saline 108 % of control | dose: 200.0 mg/kg/injection, schedule: Q04DX002 (ip), vehicle: saline 97 % of control
